Data as given in patent US8129371B2, “Thienopyrimidine and pyrazolopyrimidine compounds and their use as mTOR kinase and PI3 kinase inhibitors” (Wyeth LLC, priority 2007, dated 2012).

Key:
Human mTOR (FLAG-TOR) = molecular target: T1, Human mTOR (FLAG-TOR) (Homo sapiens, UniProt P42345); experiment: Human mTOR kinase assay with purified enzyme, DELFIA format; assay type: biochemical; conditions: purified human mTOR enzyme, DELFIA format
T1 construct: FLAG
Procedure, shortened: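 DELFIA readout: Eu-anti-P(T389)-S6K antibody (40 ng/mL, 1 h) on captured His6-S6K from the stopped reaction. Kinase step used purified FLAG-tagged human mTOR with test compound in HEPES (pH 7.4)/MnCl2/DTT buffer, 2 h at room temperature (linear 1–6 h), terminated by EDTA/EGTA.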

PI3K [1] = molecular target: T2, PI3K (Homo sapiens, UniProt P42336); experiment: Fluorescence polarization assay for PI3K; assay type: biochemical; conditions: PI3 Kinase α isoform, fluorescence polarization; read-out: PI3 Kinase α IC50
T2 construct: PI3 Kinase α IC50; other: PI3 Kinase α; other: PI3 Kinase α isoform, fluorescence polarization
Procedure, shortened: (§1)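 Fluorescence-polarization competition readout: after 30–60 min of PIP2/ATP turnover in 1% DMSO, a stop mix with GST-GRP (70 nM) and red probe (10 nM) was added.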

PI3K [2] = molecular target: T3, PI3K (Homo sapiens, UniProt P48736); experiment: Fluorescence polarization assay for PI3K; assay type: biochemical; conditions: PI3 Kinase γ isoform, fluorescence polarization; read-out: PI3 Kinase γ IC50
T3 construct: PI3 Kinase γ IC50; other: PI3 Kinase γ; other: PI3 Kinase γ isoform, fluorescence polarization
Procedure, shortened: as §1

prostate line LNCap = experiment: In vitro cell culture growth assay (MTS), LNCap; assay type: cell-based; conditions: Homo sapiens, LNCaP, 72 h, LNCap cells, three days after drug treatment
Procedure, shortened: (§2)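 Inhibitors were added one day after plating, and viable cells were measured 3 days later by MTS conversion (absorbance 490 nm).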

breast line MDA468 = experiment: In vitro cell culture growth assay (MTS), MDA468; assay type: cell-based; conditions: Homo sapiens, 72 h, MDA468 cells, three days after drug treatment
Procedure, shortened: as §2

T2 sequence (P42336 whole entry, canonical isoform): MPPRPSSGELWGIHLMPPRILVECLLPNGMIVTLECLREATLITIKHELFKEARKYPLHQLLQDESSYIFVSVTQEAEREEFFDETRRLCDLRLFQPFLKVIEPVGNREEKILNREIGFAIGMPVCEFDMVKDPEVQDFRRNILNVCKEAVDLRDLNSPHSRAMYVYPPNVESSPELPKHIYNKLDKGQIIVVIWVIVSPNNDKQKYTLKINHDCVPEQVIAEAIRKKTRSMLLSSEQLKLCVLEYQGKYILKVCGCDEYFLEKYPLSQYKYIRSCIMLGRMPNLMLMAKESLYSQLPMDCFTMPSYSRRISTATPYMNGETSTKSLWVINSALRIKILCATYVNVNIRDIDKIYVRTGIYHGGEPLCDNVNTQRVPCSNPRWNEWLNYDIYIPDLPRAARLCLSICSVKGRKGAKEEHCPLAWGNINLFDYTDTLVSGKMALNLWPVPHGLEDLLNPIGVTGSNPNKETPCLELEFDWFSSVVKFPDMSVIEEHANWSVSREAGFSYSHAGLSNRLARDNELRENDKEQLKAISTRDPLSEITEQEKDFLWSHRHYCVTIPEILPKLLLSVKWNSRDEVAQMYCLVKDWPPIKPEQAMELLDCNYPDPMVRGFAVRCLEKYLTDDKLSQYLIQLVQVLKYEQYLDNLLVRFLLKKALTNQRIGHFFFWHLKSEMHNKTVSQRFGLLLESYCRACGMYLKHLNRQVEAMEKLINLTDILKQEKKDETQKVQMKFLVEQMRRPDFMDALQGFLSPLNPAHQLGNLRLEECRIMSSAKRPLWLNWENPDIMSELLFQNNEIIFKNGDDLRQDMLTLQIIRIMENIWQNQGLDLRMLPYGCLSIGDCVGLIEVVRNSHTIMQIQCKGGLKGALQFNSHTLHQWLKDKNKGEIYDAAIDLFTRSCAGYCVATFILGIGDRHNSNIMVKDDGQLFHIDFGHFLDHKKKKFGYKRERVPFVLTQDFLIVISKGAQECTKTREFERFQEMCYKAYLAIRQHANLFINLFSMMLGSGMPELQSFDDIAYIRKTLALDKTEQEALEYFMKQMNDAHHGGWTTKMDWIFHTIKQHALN
T3 sequence (P48736 whole entry, canonical isoform): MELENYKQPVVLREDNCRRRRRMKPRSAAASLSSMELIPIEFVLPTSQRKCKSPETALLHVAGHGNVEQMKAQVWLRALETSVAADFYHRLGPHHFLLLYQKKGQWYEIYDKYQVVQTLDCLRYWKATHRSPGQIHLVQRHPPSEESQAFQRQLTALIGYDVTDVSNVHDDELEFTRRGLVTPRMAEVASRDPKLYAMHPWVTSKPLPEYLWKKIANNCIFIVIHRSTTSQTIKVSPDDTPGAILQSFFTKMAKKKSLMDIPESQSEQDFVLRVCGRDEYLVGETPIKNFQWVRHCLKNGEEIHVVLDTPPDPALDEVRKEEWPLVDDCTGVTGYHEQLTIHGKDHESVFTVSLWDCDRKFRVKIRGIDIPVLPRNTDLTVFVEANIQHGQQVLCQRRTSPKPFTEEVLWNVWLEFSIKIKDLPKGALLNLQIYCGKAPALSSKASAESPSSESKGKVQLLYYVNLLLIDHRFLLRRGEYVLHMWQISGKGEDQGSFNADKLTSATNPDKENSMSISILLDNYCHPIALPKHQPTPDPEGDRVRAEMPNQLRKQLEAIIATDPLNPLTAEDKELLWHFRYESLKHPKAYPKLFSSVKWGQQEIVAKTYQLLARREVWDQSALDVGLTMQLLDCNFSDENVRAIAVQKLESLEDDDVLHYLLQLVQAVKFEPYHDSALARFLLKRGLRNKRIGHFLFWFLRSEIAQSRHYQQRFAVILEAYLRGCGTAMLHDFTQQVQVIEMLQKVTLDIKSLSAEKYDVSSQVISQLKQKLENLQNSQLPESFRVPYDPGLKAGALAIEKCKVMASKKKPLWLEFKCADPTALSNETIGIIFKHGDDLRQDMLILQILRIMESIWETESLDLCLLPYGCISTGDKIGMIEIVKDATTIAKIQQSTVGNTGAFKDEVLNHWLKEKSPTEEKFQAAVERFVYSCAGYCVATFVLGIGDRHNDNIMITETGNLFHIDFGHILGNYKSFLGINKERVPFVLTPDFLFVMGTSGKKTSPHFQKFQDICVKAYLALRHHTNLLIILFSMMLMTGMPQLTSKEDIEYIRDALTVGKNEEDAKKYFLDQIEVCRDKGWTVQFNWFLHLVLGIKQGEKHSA

Row | SMILES | IC50 (Human mTOR (FLAG-TOR)) [nM] | IC50 (PI3K [1]) [nM] | IC50 (PI3K [2]) [nM] | IC50 (prostate line LNCap) [nM] | IC50 (breast line MDA468) [nM]
1 | CCn1nc(CN2CCN(C)CC2)c2c(N3CC4CCC(C3)O4)nc(-c3ccc(NC(=O)NC)cc3)nc21 [Example 353, 1-(4-{1-ethyl-3-[(4-methylpiperazin-1-yl)methyl]-4-(8-oxa-3-azabicyclo[3.2.1]oct-3-yl)-1H-pyrazolo[3,4-d]pyrimidin-6-yl}phenyl)-3-methylurea] | 15 | 1560 | > 10000 | 700 | 1200
2 | CCn1nc(CN2CCCC2)c2c(N3CC4CCC(C3)O4)nc(-c3ccc(NC(=O)NC)cc3)nc21 [Example 354, 1-{4-[1-ethyl-4-(8-oxa-3-azabicyclo[3.2.1]oct-3-yl)-3-(pyrrolidin-1-ylmethyl)-1H-pyrazolo[3,4-d]pyrimidin-6-yl]phenyl}-3-methylurea] | 66.5 | 2390 | > 10000 | 1200 | 2900
3 | COC(=O)N1CCC(n2ncc3c(N4C5CCC4COC5)nc(-c4ccc(NC(=O)OCCO)cc4)nc32)CC1 [Example 355, methyl 4-[6-(4-{[(2-hydroxyethoxy)carbonyl]amino}phenyl)-4-(3-oxa-8-azabicyclo[3.2.1]oct-8-yl)-1H-pyrazolo[3,4-d]pyrimidin-1-yl]piperidine-1-carboxylate] | 0.775 | 7450 | 6800 | 58 | 220
4 | CNC(=O)Nc1ccc(-c2nc(N3C4CCC3COC4)c3cnn(C4CCN(C(=O)OC)CC4)c3n2)cc1 [Example 356, methyl 4-[6-{4-[(methylcarbamoyl)amino]phenyl}-4-(3-oxa-8-azabicyclo[3.2.1]oct-8-yl)-1H-pyrazolo[3,4-d]pyrimidin-1-yl]piperidine-1-carboxylate] | 0.22 | 4270 | 6740 | 30 | 50
5 | CCNC(=O)Nc1ccc(-c2nc(N3C4CCC3COC4)c3cnn(C4CCN(C(=O)OC)CC4)c3n2)cc1 [Example 357, methyl 4-[6-{4-[(ethylcarbamoyl)amino]phenyl}-4-(3-oxa-8-azabicyclo[3.2.1]oct-8-yl)-1H-pyrazolo[3,4-d]pyrimidin-1-yl]piperidine-1-carboxylate] | 0.625 | 5550 | 9160 | 9 | 70
6 | COC(=O)N1CCC(n2ncc3c(N4C5CCC4COC5)nc(-c4ccc(NC(=O)NCCF)cc4)nc32)CC1 [Example 358, methyl 4-[6-(4-{[(2-fluoroethyl)carbamoyl]amino}phenyl)-4-(3-oxa-8-azabicyclol[3.2.1]oct-8-yl)-1H-pyrazolo[3,4-d]pyrimidin-1-yl]piperidine-1-carboxylate] | 0.495 | 7700 | 7930 | 6 | 35
7 | COC(=O)N1CCC(n2ncc3c(N4C5CCC4COC5)nc(-c4ccc(NC(=O)NC5CC5)cc4)nc32)CC1 [Example 359, methyl 4-[6-{4-[(cyclopropylcarbamoyl)amino]phenyl}-4-(3-oxa-8-azabicyclo[3.2.1]oct-8-yl)-1H-pyrazolo[3,4-d]pyrimidin-1-yl]piperidine-1-carboxylate] | 0.705 | 5640 | 7790 | 6 | 36
8 | COC(=O)N1CCC(n2ncc3c(N4C5CCC4COC5)nc(-c4ccc(NC(=O)Nc5ccccc5)cc4)nc32)CC1 [Example 360, methyl 4-[4-(3-oxa-8-azabicyclo[3.2.1]oct-8-yl)-6-{4-[(phenylcarbamoyl)amino]phenyl}-1H-pyrazolo[3,4-d]pyrimidin-1-yl]piperidine-1-carboxylate] | 0.425 | 1460 | 2150 | 10 | 40
9 | COC(=O)N1CCC(n2ncc3c(N4C5CCC4COC5)nc(-c4ccc(NC(=O)Nc5cccnc5)cc4)nc32)CC1 [Example 361, methyl 4-[4-(3-oxa-8-azabicyclo[3.2.1]oct-8-yl)-6-{4-[(pyridin-3-ylcarbamoyl)amino]phenyl}-1H-pyrazolo[3,4-d]pyrimidin-1-yl]piperidine-1-carboxylate] | 0.165 | 1830 | 4070 | 2 | 20
10 | COC(=O)N1CCC(n2ncc3c(N4C5CCC4COC5)nc(-c4ccc(NC(=O)Nc5ccncc5)cc4)nc32)CC1 [Example 362, methyl 4-[4-(3-oxa-8-azabicyclo[3.2.1]oct-8-yl)-6-{4-[(pyridin-4-ylcarbamoyl)amino]phenyl}-1H-pyrazolo[3,4-d]pyrimidin-1-yl]piperidine-1-carboxylate] | 0.26 | 1930 | 2000 | 3 | 10
11 | COC(=O)N1CCC(n2ncc3c(N4C5CCC4COC5)nc(-c4ccc(NC(=O)Nc5ccc(N6CCN(C)CC6)cc5)cc4)nc32)CC1 [Example 363, methyl 4-{6-[4-({[4-(4-methylpiperazin-1-yl)phenyl]carbamoyl}amino)phenyl]-4-(3-oxa-8-azabicyclo[3.2.1]oct-8-yl)-1H-pyrazolo[3,4-d]pyrimidin-1-yl}piperidine-1-carboxylate] | 0.545 | 1590 | 3240 | < 1 | 1
12 | COC(=O)N1CCC(n2ncc3c(N4C5CCC4COC5)nc(-c4ccc(NC(=O)Nc5ccc(N6CCNCC6)cc5)cc4)nc32)CC1 [Example 364, methyl 4-[4-(3-oxa-8-azabicyclo[3.2.1]oct-8-yl)-6-(4-{[(4-piperazin-1-ylphenyl)carbamoyl]amino}phenyl)-1H-pyrazolo[3,4-d]pyrimidin-1-yl]piperidine-1-carboxylate] | 0.44 | 1230 | 947 | 1 | 4
13 | COC(=O)N1CCC(n2ncc3c(N4C5CCC4COC5)nc(-c4ccc(NC(=O)Nc5ccc(N6CCN(C)CC6)nc5)cc4)nc32)CC1 [Example 365, methyl 4-{6-[4-({[6-(4-methylpiperazin-1-yl)pyridin-3-yl]carbamoyl}amino)phenyl]-4-(3-oxa-8-azabicyclo[3.2.1]oct-8-yl)-1H-pyrazolo[3,4-d]pyrimidin-1-yl}piperidine-1-carboxylate] | 0.795 | 2590 | 4530 | 4 | 12
14 | COC(=O)N1CCC(n2ncc3c(N4C5CCC4COC5)nc(-c4ccc(NC(=O)Nc5ccc(CN(C)C)cc5)cc4)nc32)CC1 [Example 366] | 0.795 | 2070 | 1500 | 10 | 20
15 | COC(=O)N1CCC(n2ncc3c(N4C5CCC4COC5)nc(-c4ccc(NC(=O)Nc5ccc(CN6CCN(C)CC6)cc5)cc4)nc32)CC1 [Example 367, methyl 4-[6-{4-[({4-[(4-methylpiperazin-1-yl)methyl]phenyl}carbamoyl)amino]phenyl}-4-(3-oxa-8-azabicyclo[3.2.1]oct-8-yl)-1H-pyrazolo[3,4-d]pyrimidin-1-yl]piperidine-1-carboxylate] | 0.88 | 2390 | 1820 | 1 | 13
